Test results: publication PMC9225265, “Functional Analysis of the Plasma Membrane H^+-ATPases of Ustilago maydis” (Journal of Fungi, 2022)

System: T1, plasma membrane H+-ATPases of wild-type FB2 (Pma1 and Pma2)
T1 construct: native enzymes in isolated plasma membrane fraction of wild-type sporidia; both pumps present; vanadate-sensitive ATPase activity
Assay: Pi release (Fiske-Subbarow), vanadate-sensitive ATPase activity of plasma membrane fraction, Michaelis-Menten fit
Type: biochemical, Mycosarcoma maydis
Settings: MES pH 6.5, 5 mM MgCl2, 30 °C, ATP regenerating system (phosphoenolpyruvate / pyruvate kinase), NaN3, KNO3, Pma1 and Pma2 together, rounded value for all strains, exact value in figure

Nc1ncnc2c1ncn2[C@@H]1O[C@H](COP(=O)(O)OP(=O)(O)OP(=O)(O)O)[C@@H](O)[C@H]1O [Mg-ATP]
Km: ~2000 µM
